Results taken from the supplement of paper PMC4862054.

Columns and labels:
Experiment in all cases: normalised viability (% of control), CellTiter-Blue; higher = more viable cells (about 100 = DMSO control)
Settings in all cases: incubation time: 72 h
[1] = test system: CAL-148
In short: (§1)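 The reported figure is normalised viability at a single listed concentration of the series. Breast cancer cell lines (20 µl suspension) went onto 384-well plates holding compound in 5 µl medium for 72 h. CellTiter-Blue (2.5 µl, 2 h, 37 °C) was read by fluorescence at 560/590 nm, and each plate was scaled to vehicle at 100 and a positive kill control at 0.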

[2] = test system: MDA-MB-436
In short: as §1

[3] = test system: BT-474
In short: as §1

[4] = test system: MDA-MB-231
In short: as §1

[5] = test system: Hs578T
In short: as §1

[6] = test system: HDQ-P1
In short: as §1

[7] = test system: HCC1599
In short: as §1

[8] = test system: MFM-223
In short: as §1

[9] = test system: HCC1937
In short: as §1

[10] = test system: CAL-85-1
In short: as §1

[11] = test system: DU-4475
In short: as §1

[12] = test system: HCC1143
In short: as §1

Structure (SMILES) | normalised viability ([1]; 3 nM) | normalised viability ([1]; 30 nM) | normalised viability ([1]; 100 nM) | normalised viability ([2]; 10 nM) | normalised viability ([2]; 1000 nM) | normalised viability ([2]; 10000 nM) | normalised viability ([3]; 10 nM) | normalised viability ([3]; 1000 nM) | normalised viability ([3]; 10000 nM) | normalised viability ([4]; 10 nM) | normalised viability ([4]; 1000 nM) | normalised viability ([4]; 10000 nM) | normalised viability ([5]; 10 nM) | normalised viability ([5]; 1000 nM) | normalised viability ([5]; 10000 nM) | normalised viability ([6]; 3 nM) | normalised viability ([6]; 30 nM) | normalised viability ([6]; 100 nM) | normalised viability ([7]; 10 nM) | normalised viability ([7]; 1000 nM) | normalised viability ([7]; 10000 nM) | normalised viability ([8]; 10 nM) | normalised viability ([8]; 1000 nM) | normalised viability ([8]; 10000 nM) | normalised viability ([9]; 10 nM) | normalised viability ([9]; 1000 nM) | normalised viability ([9]; 10000 nM) | normalised viability ([10]; 3 nM) | normalised viability ([10]; 30 nM) | normalised viability ([10]; 100 nM) | normalised viability ([11]; 3 nM) | normalised viability ([11]; 30 nM) | normalised viability ([11]; 100 nM) | normalised viability ([12]; 10 nM) | normalised viability ([12]; 1000 nM) | normalised viability ([12]; 10000 nM)
CC(=O)c1c(C)c2cnc(Nc3ccc(N4CCNCC4)cn3)nc2n(C2CCCC2)c1=O | 91% | 89.4% | 93.6% | 78.1% | 36.7% | 89.8% | 108% | 105% | 67% | 97.6% | 57.7% | 41.2% | 100% | 83.9% | 71.5% | 95.2% | 99.9% | 99.5% | 93.3% | 109% | 89.3% | 77.5% | 79.3% | 74% | 38.9% | 102% | 67.9% | 96.2% | 102% | 91.4% | 104% | 99.7% | 105% | 74.2% | 73.5% | 61.8%
Cn1cc(C2=Nc3cc(NC(=O)C(N)C4CCCCC4)cc4c3C2=CNNC4=O)cn1 (stereo not drawn) | 88.3% | 93.5% | 94% | 102% | 70% | 32.8% | 103% | 104% | 98.9% | 81.7% | 85.6% | 34.5% | 122% | 35.1% | 29.5% | 104% | 102% | 106% | 94.6% | 52.8% | 42% | 86.1% | 57.3% | 62.2% | 98.2% | 55.3% | 22.7% | 89% | 78.3% | 90% | 89.6% | 82.9% | 86.3% | 85.5% | 57.2% | 25.6%
COc1cc2c(cc1O)CC[C@@H]1[C@@H]2CC[C@]2(C)[C@@H](O)CC[C@@H]12 [2-methoxyestradiol] | 89.8% | 89.5% | 86% | 104% | 60.5% | 44.6% | 133% | 64.3% | 48.5% | 83.9% | 44.8% | 30.5% | 114% | 67.5% | 16.2% | 103% | 93.9% | 93.2% | 97.3% | 116% | 80.5% | 98.8% | 74.9% | 99.2% | 113% | 54.3% | 26.8% | 91.4% | 85.5% | 94.5% | 108% | 102% | 109% | 92.4% | 82.7% | 37.1%
